The text below walks through data of patent US20260355184A1, “SMALL MOLECULE DEGRADERS OF HIV-1 TAT PROTEIN” (priority 2022, published 2026).

One series concerns HIV NL4.3 strain. As to the kind of experiment: HIV infectivity assay, reporter cell line HeLa-CD4-LTR-LacZ, β-Gal activity (Tat protein inhibition). The format is cell-based, HIV-1 (NL4.3). Conditions: Human immunodeficiency virus 1, read-out: Infectivity IC50, HeLa-CD4-LTR-LacZ. How it is done:
(§1) Next, the activity of these leads against HIV infection was evaluated using the reporter cell line HeLa-CD4-LTR-LacZ, which stably expresses the β-galactosidase (β-Gal) gene under the control of the HIV 5′ LTR. The HIV NL4.3 strain was used for these studies and β-Gal activity was measured 72 hrs post infection (FIG. 3A). Cytotoxicity assays using Cell-Titer-Glo were performed in parallel to assess cell viability (FIG. 3A). […] Their anti-HIV activity was further assessed in acute replication of Jurkat T cells with the NL4.3 strain (FIG. 3A). […] These OM10.1 cells contain a single integrated wild-type provirus, while ACH-2 cells contain a single integrated provirus with a TAR mutation C37T, defective Tat-TAR feedback loop (FIG. 3B).

Series [1] in a line: Cytotoxicity assay, Cell-Titer-Glo, HeLa-CD4-LTR-LacZ. To be noted: human, hela-cd4-ltr-lacz cells, Infectivity CC50, HeLa-CD4-LTR-LacZ. Here is the method: as §1

pIC50: −log10 of the molar value. Read-outs that look alike come from different tables or passages of the source.

Consider `CCCCN(CCCN1CCCC1=O)C(=O)c1nn(-c2ccccc2)c2c1CCC2` [GB-07], for which, in the series on HIV NL4.3 strain (analogs of TT-44881 (Table 1)), the pIC50 was 4.00 to 4.30. In addition, in series [1] (analogs of TT-44881 (Table 1)), the CC50 fell in the range of 50 to 100 µM.

`CC1(C(=O)NCCCn2ccnc2)c2ccccc2-c2ccccc21` [3-50]: the pIC50 in the series on HIV NL4.3 strain (analogs of TT-44856 (Table 3)) is 4.70 to 6.00. Also, the CC50 in series [1] (analogs of TT-44856 (Table 3)) is over 100 µM.

For the compound `COc1ccccc1CNC(=O)Cn1cc(C(F)(F)F)cc(Cl)c1=O` [compound 46688], the pIC50 in the series with HIV NL4.3 strain (analogs of TT-44863 (Table 2)) was under 4.00. Moreover, in series [1] (analogs of TT-44863 (Table 2)), the CC50 was over 100 µM.

As for `CS(=O)(=O)N1CCN(C(=O)c2cn(-c3ccccc3)c3ccccc23)CC1` [compound 41798], the pIC50 in the series with HIV NL4.3 strain (analogs of TT-44881 (Table 1)) was under 4.00. Also, in series [1] (analogs of TT-44881 (Table 1)), the CC50 is over 100 µM.

Regarding `CCOc1ccccc1NC(=O)Cn1cc(C(F)(F)F)cc(Cl)c1=O` [compound 46604], the pIC50 with HIV NL4.3 strain (analogs of TT-44863 (Table 2)) is under 4.00. Moreover, the CC50 in series [1] (analogs of TT-44863 (Table 2)) is over 100 µM.

With `COc1ccc(C(F)(F)F)cc1NC(=O)Cn1cc(C(F)(F)F)ccc1=O` [compound 46917], the pIC50 in the series on HIV NL4.3 strain (analogs of TT-44863 (Table 2)) is 4.52 to 6.00. The compound further yielded a CC50 in series [1] (analogs of TT-44863 (Table 2)) of over 100 µM.

Consider `COc1ccc(NC(=O)Cn2cc(C(F)(F)F)cc(Cl)c2=O)cc1C(F)(F)F` [compound 44], for which the pIC50 in the series on HIV NL4.3 strain (analogs of TT-44863 (Table 2)) is under 4.00. Moreover, the CC50 in series [1] (analogs of TT-44863 (Table 2)) is over 100 µM.

For the compound `COc1ccc(C(F)(F)F)cc1NC(=O)Cn1cc(F)cc(Cl)c1=O` [compound 47006], in the series on HIV NL4.3 strain (analogs of TT-44863 (Table 2)), the pIC50 was under 4.30. This compound showed a CC50 in series [1] (analogs of TT-44863 (Table 2)) of over 50 µM.

On to `CCC(C(=O)NCCCn1ccnc1C)(c1ccccc1)c1ccccc1` [3-69], for which the pIC50 in the series with HIV NL4.3 strain (analogs of TT-44856 (Table 3)) is 5.00 to 6.00. Further, the CC50 in series [1] (analogs of TT-44856 (Table 3)) was over 100 µM.

For the compound `O=C(c1nn(-c2ccccc2)c2c1CCC2)N1CCCC1` [compound 46607], the pIC50 in the series on HIV NL4.3 strain (analogs of TT-44881 (Table 1)) is under 4.00. In series [1] (analogs of TT-44881 (Table 1)), the cytotoxic concentration (CC50) was over 100 µM.

As to `COc1ccccc1CNC(=O)Cn1cccc(Cl)c1=O` [compound 46747], the pIC50 with HIV NL4.3 strain (analogs of TT-44863 (Table 2)) is under 4.00. In series [1] (analogs of TT-44863 (Table 2)), this compound yielded a CC50 of over 100 µM.

For the compound `COc1ccc(C(F)(F)F)cc1NC(=O)C(C)n1cc(C(F)(F)F)cc(Cl)c1=O` (stereo not drawn) [compound 49], the pIC50 with HIV NL4.3 strain (analogs of TT-44863 (Table 2)) was 4.70 to 6.00. The same compound displayed a CC50 in series [1] (analogs of TT-44863 (Table 2)) of over 100 µM.

In the case of `O=C(NCCCN1CCCC1=O)c1nn(-c2ccccc2)c2ncccc12` [compound 46752], in the series with HIV NL4.3 strain (analogs of TT-44881 (Table 1)), the pIC50 is under 4.00. In series [1] (analogs of TT-44881 (Table 1)), this compound returned a CC50 of over 100 µM.

Take `CCCC(C(=O)NCCCn1ccnc1)(c1ccccc1)c1ccccc1` [3-57]: the pIC50 in the series with HIV NL4.3 strain (analogs of TT-44856 (Table 3)) was 5.00 to 6.00. Moreover, the CC50 in series [1] (analogs of TT-44856 (Table 3)) was over 100 µM.

For `COc1ccc(C(F)(F)F)cc1CNC(=O)Cn1cc(C(F)(F)F)cc(Cl)c1=O` [compound 46875], the pIC50 in the series with HIV NL4.3 strain (analogs of TT-44863 (Table 2)) was under 4.00. The CC50 in series [1] (analogs of TT-44863 (Table 2)) is over 100 µM.

In the case of `O=C(NCCCn1ccnc1)C(c1ccccc1)(c1ccccc1)c1ccccc1` [3-58], the pIC50 with HIV NL4.3 strain (analogs of TT-44856 (Table 3)) was 4.70 to 6.00. The same compound came in with a CC50 in series [1] (analogs of TT-44856 (Table 3)) of over 100 µM.

As to `COc1ccc(C(F)(F)F)cc1NC(=O)Cn1cccc(F)c1=O` [compound 46765], in the series on HIV NL4.3 strain (analogs of TT-44863 (Table 2)), the pIC50 is under 4.00. Further, the CC50 in series [1] (analogs of TT-44863 (Table 2)) is over 100 µM.

With `O=C(NCCCn1ccnc1)C1c2ccccc2-c2ccccc21` [3-35], the pIC50 in the series with HIV NL4.3 strain (analogs of TT-44856 (Table 3)) was 4.00 to 4.30. This compound also came in with a CC50 in series [1] (analogs of TT-44856 (Table 3)) of over 100 µM.

As for `O=C(Cn1cc(C(F)(F)F)cc(Cl)c1=O)Nc1cc(C(F)(F)F)ccc1OCCN1CCOCC1` [compound 51], the pIC50 in the series on HIV NL4.3 strain (analogs of TT-44863 (Table 2)) was 5.00 to 6.00. For the same compound, the half-maximal cytotoxic concentration (CC50) in series [1] (analogs of TT-44863 (Table 2)) fell in the range of 50 to 100 µM.

Turning to `O=C(NCCCN1CCCC1=O)c1ccc(=O)n(-c2ccccc2)c1` [compound 47155], the pIC50 in the series with HIV NL4.3 strain (analogs of TT-44881 (Table 1)) is under 4.00. The compound also came in with a CC50 in series [1] (analogs of TT-44881 (Table 1)) of over 100 µM.

Regarding `O=C(Nc1ccccc1)c1c(NCCCN2CCCC2=O)c2ccccc2[nH]c1=O` [compound 46827], in the series on HIV NL4.3 strain (analogs of TT-44881 (Table 1)), the pIC50 is under 4.00. The same compound returned a CC50 in series [1] (analogs of TT-44881 (Table 1)) of over 100 µM.

With `COc1ccccc1CCNC(=O)C(C)(c1ccccc1)c1ccccc1` [3-43], the negative-log IC50 (pIC50) in the series on HIV NL4.3 strain (analogs of TT-44856 (Table 3)) is 4.00 to 4.70. Moreover, in series [1] (analogs of TT-44856 (Table 3)), the CC50 was in the range of 25 to 50 µM.

`O=C(NCc1ccccc1N1CCCCC1)c1cn(-c2ccccc2)c2ccccc12` [compound 41924]: the pIC50 with HIV NL4.3 strain (analogs of TT-44881 (Table 1)) is under 4.00. Further, in series [1] (analogs of TT-44881 (Table 1)), the CC50 was over 100 µM.

Take `O=C(NCCCN1CCCC1=O)c1cn(-c2ccccc2)c2ncc(F)cc12` [compound 46879]: the pIC50 with HIV NL4.3 strain (analogs of TT-44881 (Table 1)) is 4.30 to 6.00. In series [1] (analogs of TT-44881 (Table 1)), the CC50 was over 100 µM.

On to `COCCOc1ccc(C(F)(F)F)cc1NC(=O)Cn1cccc(Cl)c1=O` [compound 46704], for which the pIC50 with HIV NL4.3 strain (analogs of TT-44863 (Table 2)) was under 4.00. This compound also yielded a CC50 in series [1] (analogs of TT-44863 (Table 2)) of over 100 µM.

In the case of `Cc1ccc(C(F)(F)F)cc1NC(=O)Cn1cc(C(F)(F)F)cc(Cl)c1=O` [compound 47001], the pIC50 in the series with HIV NL4.3 strain (analogs of TT-44863 (Table 2)) is 5.00 to 6.00. This compound also showed a CC50 in series [1] (analogs of TT-44863 (Table 2)) of over 100 µM.

For the compound `O=C(NCCCN1CCCC1=O)c1nn(CC2CCC2)c2c1CCC2` [compound 46933], the pIC50 with HIV NL4.3 strain (analogs of TT-44881 (Table 1)) is under 4.00. Moreover, the CC50 in series [1] (analogs of TT-44881 (Table 1)) was over 100 µM.
